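Cultured in 96-well plates, cells were exposed to test compound for 48 hours across five concentrations. The concentration for 50% growth inhibition is given as GI50. TGI: total growth inhibition.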
How the values were obtained:
Assay in all cases: NCI-60 cell line screen, 48 h
SNB-75 CNS = tested on: SNB-75 CNS
OVCAR-4 ovarian = tested on: OVCAR-4 ovarian
MDA-MB-231 breast = tested on: MDA-MB-231 breast
BT-549 breast = tested on: BT-549 breast
SK-MEL-28 melanoma = tested on: SK-MEL-28 melanoma
HS 578T breast = tested on: HS 578T breast
NCI-H460 lung = tested on: NCI-H460 lung
EKVX NSCLC = tested on: EKVX NSCLC
MDA-MB-435 = tested on: MDA-MB-435
M14 melanoma = tested on: M14 melanoma
SK-MEL-2 melanoma = tested on: SK-MEL-2 melanoma
SF-539 CNS = tested on: SF-539 CNS
SNB-19 CNS = tested on: SNB-19 CNS
MOLT-4 leukemia = tested on: MOLT-4 leukemia
HT29 colon = tested on: HT29 colon
SW-620 colon = tested on: SW-620 colon
U251 CNS = tested on: U251 CNS
RXF 393 renal = tested on: RXF 393 renal
A549 NSCLC = tested on: A549 NSCLC
COLO 205 colon = tested on: COLO 205 colon
SK-OV-3 ovarian = tested on: SK-OV-3 ovarian
SF-295 CNS = tested on: SF-295 CNS
UO-31 renal = tested on: UO-31 renal
HCT-116 colon = tested on: HCT-116 colon
PC-3 prostate = tested on: PC-3 prostate
NCI/ADR-RES ovarian = tested on: NCI/ADR-RES ovarian
HOP-92 NSCLC = tested on: HOP-92 NSCLC
ACHN renal = tested on: ACHN renal
K-562 leukemia = tested on: K-562 leukemia
HCT-15 colon = tested on: HCT-15 colon
SF-268 CNS = tested on: SF-268 CNS
HL-60(TB) leukemia = tested on: HL-60(TB) leukemia
NCI-H522 lung = tested on: NCI-H522 lung
KM12 colon = tested on: KM12 colon
HCC-2998 colon = tested on: HCC-2998 colon
OVCAR-3 ovarian = tested on: OVCAR-3 ovarian
LOX IMVI melanoma = tested on: LOX IMVI melanoma
CAKI-1 renal = tested on: CAKI-1 renal
T-47D breast = tested on: T-47D breast
CCRF-CEM leukemia = tested on: CCRF-CEM leukemia
NCI-H23 lung = tested on: NCI-H23 lung
RPMI-8226 leukemia = tested on: RPMI-8226 leukemia
A498 renal = tested on: A498 renal
IGROV1 ovarian = tested on: IGROV1 ovarian
DU-145 prostate = tested on: DU-145 prostate
OVCAR-8 ovarian = tested on: OVCAR-8 ovarian
SN12C renal = tested on: SN12C renal
OVCAR-5 ovarian = tested on: OVCAR-5 ovarian
SK-MEL-5 melanoma = tested on: SK-MEL-5 melanoma
TK-10 renal = tested on: TK-10 renal
SR leukemia = tested on: SR leukemia
UACC-62 melanoma = tested on: UACC-62 melanoma
786-0 renal = tested on: 786-0 renal
HOP-62 NSCLC = tested on: HOP-62 NSCLC
UACC-257 melanoma = tested on: UACC-257 melanoma

Which results are given for C=C1CC[C@@H]2[C@](C)(COC(C)=O)[C@H](OC(C)=O)CC[C@@]2(C)[C@@H]1CC(Nc1ccc(S(=O)(=O)Nc2cc(C)on2)cc1)C1=CCOC1=O (stereo not given in full)?
GI50 (SNB-75 CNS): 2.03 µM; TGI (SNB-75 CNS): 11.5 µM; GI50 (OVCAR-4 ovarian): 2.91 µM; TGI (OVCAR-4 ovarian): 10.5 µM; GI50 (MDA-MB-231 breast): 2.22 µM; TGI (MDA-MB-231 breast): 5.11 µM; GI50 (BT-549 breast): 1.79 µM; TGI (BT-549 breast): 3.47 µM; GI50 (SK-MEL-28 melanoma): 2.02 µM; TGI (SK-MEL-28 melanoma): 4.31 µM; GI50 (HS 578T breast): 3.92 µM; TGI (HS 578T breast): 26.7 µM; GI50 (NCI-H460 lung): 2.35 µM; TGI (NCI-H460 lung): 5.7 µM; GI50 (EKVX NSCLC): 11 µM; TGI (EKVX NSCLC): 25.9 µM; GI50 (MDA-MB-435): 1.74 µM; TGI (MDA-MB-435): 4.37 µM; GI50 (M14 melanoma): 1.69 µM; TGI (M14 melanoma): 4.17 µM; GI50 (SK-MEL-2 melanoma): 2.04 µM; TGI (SK-MEL-2 melanoma): 4.4 µM; GI50 (SF-539 CNS): 1.59 µM; TGI (SF-539 CNS): 3.06 µM; GI50 (SNB-19 CNS): 3.12 µM; TGI (SNB-19 CNS): 12.2 µM; GI50 (MOLT-4 leukemia): 2.12 µM; TGI (MOLT-4 leukemia): 6.39 µM; GI50 (HT29 colon): 1.58 µM; TGI (HT29 colon): 3.09 µM; GI50 (SW-620 colon): 1.32 µM; TGI (SW-620 colon): 2.91 µM; GI50 (U251 CNS): 1.89 µM; TGI (U251 CNS): 3.4 µM; GI50 (RXF 393 renal): 2.05 µM; TGI (RXF 393 renal): 3.84 µM; GI50 (A549 NSCLC): 4.75 µM; TGI (A549 NSCLC): 15.4 µM; GI50 (COLO 205 colon): 1.97 µM; TGI (COLO 205 colon): 4.34 µM; GI50 (SK-OV-3 ovarian): 11 µM; TGI (SK-OV-3 ovarian): 23.1 µM; GI50 (SF-295 CNS): 8.13 µM; TGI (SF-295 CNS): 21 µM; GI50 (UO-31 renal): 1.69 µM; TGI (UO-31 renal): 3.52 µM; GI50 (HCT-116 colon): 1.12 µM; TGI (HCT-116 colon): 2.39 µM; GI50 (PC-3 prostate): 1.98 µM; TGI (PC-3 prostate): 4.31 µM; GI50 (NCI/ADR-RES ovarian): 2.41 µM; TGI (NCI/ADR-RES ovarian): 12 µM; GI50 (HOP-92 NSCLC): 3.07 µM; TGI (HOP-92 NSCLC): 8 µM; GI50 (ACHN renal): 1.71 µM; TGI (ACHN renal): 3.48 µM; GI50 (K-562 leukemia): 1.57 µM; TGI (K-562 leukemia): 8.42 µM; GI50 (HCT-15 colon): 1.5 µM; TGI (HCT-15 colon): 3.83 µM; GI50 (SF-268 CNS): 2.35 µM; TGI (SF-268 CNS): 6.11 µM; GI50 (HL-60(TB) leukemia): 1.39 µM; TGI (HL-60(TB) leukemia): 3.69 µM; GI50 (NCI-H522 lung): 1.04 µM; TGI (NCI-H522 lung): 2.42 µM; GI50 (KM12 colon): 1.83 µM; TGI (KM12 colon): 3.69 µM; GI50 (HCC-2998 colon): 2.14 µM; TGI (HCC-2998 colon): 4.05 µM; GI50 (OVCAR-3 ovarian): 1.66 µM; TGI (OVCAR-3 ovarian): 3.09 µM; GI50 (LOX IMVI melanoma): 1.18 µM; TGI (LOX IMVI melanoma): 2.54 µM; GI50 (CAKI-1 renal): 4.14 µM; TGI (CAKI-1 renal): 14.7 µM; GI50 (T-47D breast): 2.8 µM; TGI (T-47D breast): 7.37 µM; GI50 (CCRF-CEM leukemia): 0.477 µM; TGI (CCRF-CEM leukemia): 2.71 µM; GI50 (NCI-H23 lung): 2.31 µM; TGI (NCI-H23 lung): 5.9 µM; GI50 (RPMI-8226 leukemia): 1.54 µM; TGI (RPMI-8226 leukemia): 5.43 µM; GI50 (A498 renal): 7.69 µM; TGI (A498 renal): 20.3 µM; GI50 (IGROV1 ovarian): 2.36 µM; TGI (IGROV1 ovarian): 6.51 µM; GI50 (DU-145 prostate): 2.43 µM; TGI (DU-145 prostate): 6.53 µM; GI50 (OVCAR-8 ovarian): 1.88 µM; TGI (OVCAR-8 ovarian): 4.3 µM; GI50 (SN12C renal): 1.73 µM; TGI (SN12C renal): 4.52 µM; GI50 (OVCAR-5 ovarian): 2.16 µM; TGI (OVCAR-5 ovarian): 4.05 µM; GI50 (SK-MEL-5 melanoma): 2.11 µM; TGI (SK-MEL-5 melanoma): 4.65 µM; GI50 (TK-10 renal): 3.04 µM; TGI (TK-10 renal): 7.11 µM; GI50 (SR leukemia): 0.375 µM; TGI (SR leukemia): 3.36 µM; GI50 (UACC-62 melanoma): 2.13 µM; TGI (UACC-62 melanoma): 7.06 µM; GI50 (786-0 renal): 1.96 µM; TGI (786-0 renal): 3.66 µM; GI50 (HOP-62 NSCLC): 8.88 µM; TGI (HOP-62 NSCLC): 22.9 µM; GI50 (UACC-257 melanoma): 2.95 µM; TGI (UACC-257 melanoma): 6.19 µM
